Source: publication PMC8297402, “Trifluoromethyl-substituted 3,5-bis(arylidene)-4-piperidones as potential anti-hepatoma and anti-inflammation agents by inhibiting NF-кB activation” (Journal of Enzyme Inhibition and Medicinal Chemistry, 2021)
Where two headings read alike, the source gives them in different places.

What was measured:
HepG2 = experiment: Modified MTT cytotoxicity assay, HepG2; format: cell-based, Human; conditions: for IC50: Homo sapiens; for SI (selectivity index) HepG2: quotient of IC50 for normal (LO2) and malignant (HepG2) cells
How it was run: (§1)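 HepG2 grown in DMEM, SMMC-7721 and LO2 in RPMI 1640, each with 10% FBS; ~8 × 10^3 cells/well. Compounds at 0.3125-10 μg/mL for 24 h at 37 °C, then MTT for 4 h. IC50 as mean of three replicates.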

SMMC-7721 = experiment: Modified MTT cytotoxicity assay, SMMC-7721; format: cell-based, Human; conditions: for SI (selectivity index) SMMC-7721: quotient of IC50 for normal (LO2) and malignant (SMMC-7721) cells
How it was run: as §1

[1] = Modified MTT cytotoxicity assay, normal heptical cell line LO2; format: cell-based, human; conditions: human, LO2 cells (normal hepatic cell line), 24 h incubation
How it was run: as §1

RAW264.7 cell = experiment: MTT toxicity pre-experiment on RAW264.7 macrophagocyte; format: cell-based, mouse
How it was run: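 Cytotoxicity toward RAW264.7 macrophages determined by MTT assay with compounds at 5.0 μM, expressed as cell survival rate.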

TNF-α = experiment: ELISA of TNF-α release in LPS-stimulated RAW264.7 cells; format: cell-based, mouse; conditions: Mus musculus
How it was run: (§2)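 RAW264.7 cells pretreated 2 h with compound at 5.0 μM (PDTC 30 μM as reference), then stimulated with LPS 1.0 μg/mL for a further 22 h. Secreted TNF-α and IL-6 in the culture media quantified by ELISA.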

IL-6 = experiment: ELISA of IL-6 release in LPS-stimulated RAW264.7 cells; format: cell-based, mouse; conditions: Mus musculus, RAW264.7, BAPs (5 μM) + LPS (1 μg/mL), RAW264.7, ELISA; read-out: Inhibition rate IL-6
How it was run: as §2

Bcl-2 = experiment: Western blot, Bcl-2 expression in HepG2 cells; format: cell-based, Human; conditions: HepG2, 1.0, 2.0, 4.0 μM, 24 h
From the text: (§3) Primary antibodies (anti-Bax, Abcam, ab32503; anti-Bcl-2, Abcam, ab194583; anti-Cleaved caspase-3, Abcam, ab2302; anti-p65, Cell Signalling Technology, 8242S; anti-p-p65, Cell Signalling Technology, 3033S; anti-IκBα, Cell Signalling Technoligy, 4812S; anti-p-IκBα, Cell Signalling Technology, 2859S; anti-p38, Cell Signalling Technology, 8690S; anti-p-p38, Cell Signalling Technology, 4511S; anti-JNK, Cell Signalling Technology, 9258 T; anti-p-JNK, Santa Cruz Biotechnology, sc-6254; anti-GAPDH, Abcam, ab181602), and goat anti-rabbit IgG/HRP secondary antibodies (Cell Signalling Technology, 98164 s) were purchased and used according to the manufacturer’s instructions. HepG2 cell lines were incubated with different doses of BAP 16 (1.0, 2.0, 4.0 μM) for 24 h (Bax, Cleaved caspase-3, Bcl-2). RAW264.7 cells were incubated with BAP 16 for 1 h, then treated with LPS (1.0 μg/mL) for 30 min. Afterward cell extraction was performed and extracts were used for Western blot analysis. Next, 30 μg protein of cell lysates were separated by 12% SDS-PAGE gel. The proteins were then transferred onto nitrocellulose membranes. […] By using Quantity One software (Bio-Rad), western blotting results were quantified from more than three separate experiments.

C-Caspase-3 = experiment: Western blot, C-Caspase-3 expression in HepG2 cells; format: cell-based, Human; conditions: HepG2, 1.0, 2.0, 4.0 μM, 24 h
From the text: as §3

p-IκBα = experiment: Western blot, LPS-stimulated phosphorylation of IκBα in RAW264.7 cells; format: cell-based, mouse; conditions: RAW264.7, 1.0, 2.0, 4.0 μM, LPS 1.0 μg/mL 30 min
From the text: as §3

With O=C1C(=Cc2cccc(C(F)(F)F)c2)CN(S(=O)(=O)c2ccc(C(F)(F)F)cc2)CC1=Cc1cccc(C(F)(F)F)c1 [BAP 16] the IC50 (HepG2; HepG2, 24 h, MTT, 24 h incubation, three replicates, read-out: Cytotoxicity IC50 HepG2) was about 0.6 µM, the IC50 (HepG2; HepG2, average of HepG2 and SMMC-7721, read-out: Cytotoxicity against HCC cells, average) was 0.9 µM and the “SI value, average” value (HepG2; average of SI for HepG2 and SMMC-7721) was 22.3. For the same compound, the “SI (selectivity index) HepG2” value (HepG2) was “ca. 29.7”, the “SI (selectivity index) HepG2” value (HepG2; listed as 16) was 29.7 and the IC50 (SMMC-7721; Homo sapiens, SMMC-7721, 24 h, MTT, 24 h incubation, three replicates) was about 1.2 µM. For the same compound, the “SI (selectivity index) SMMC-7721” value (SMMC-7721) was “ca. 14.8”, the “SI (selectivity index) SMMC-7721” value (SMMC-7721; listed as 16) was 14.8 and the IC50 at 24 h [1] was about 17.8 µM. The “Survival rate RAW264.7 cell” value (RAW264.7 cell; BAPs 5 μM) was 88.6 ± 3.7%, the viability at 5 µM (RAW264.7 cell; Mus musculus, RAW264.7, BAPs 5 μM, read-out: Survival rate RAW264.7 cell) was 88.6% and the inhibition at 5 µM (TNF-α; RAW264.7, BAPs (5 μM) + LPS (1 μg/mL), RAW264.7, ELISA, read-out: Inhibition rate TNF-α) was about 83.2%. The inhibition at 5 µM (TNF-α; RAW264.7, average of TNF-α and IL-6, 5 μM + LPS, RAW264.7, read-out: Inhibition rates against IL-6 and TNF-α cytokine release, average) was 81.2%, the inhibition at 5 µM (IL-6) was about 79.2% and the “Expression of anti-apoptotic protein Bcl-2” value (Bcl-2) was “decreased in a dose-dependent manner”. For the same compound, the “Expression of pro-apoptotic protein C-Caspase-3” value (C-Caspase-3) was “significantly increased” and the “Expression level of p-IκBα” value (p-IκBα) was “significantly decreased in a dose-dependent manner”.
